Reference: PMC6066518, “Homology Modeling Informs Ligand Discovery for the Glutamine Transporter ASCT2” (Frontiers in Chemistry, 2018)

Molecular target: T1, ASCT2 (Rattus norvegicus, UniProt D3ZJ25)
T1 construct: gene Slc1a5
T1 sequence (D3ZJ25 1-555): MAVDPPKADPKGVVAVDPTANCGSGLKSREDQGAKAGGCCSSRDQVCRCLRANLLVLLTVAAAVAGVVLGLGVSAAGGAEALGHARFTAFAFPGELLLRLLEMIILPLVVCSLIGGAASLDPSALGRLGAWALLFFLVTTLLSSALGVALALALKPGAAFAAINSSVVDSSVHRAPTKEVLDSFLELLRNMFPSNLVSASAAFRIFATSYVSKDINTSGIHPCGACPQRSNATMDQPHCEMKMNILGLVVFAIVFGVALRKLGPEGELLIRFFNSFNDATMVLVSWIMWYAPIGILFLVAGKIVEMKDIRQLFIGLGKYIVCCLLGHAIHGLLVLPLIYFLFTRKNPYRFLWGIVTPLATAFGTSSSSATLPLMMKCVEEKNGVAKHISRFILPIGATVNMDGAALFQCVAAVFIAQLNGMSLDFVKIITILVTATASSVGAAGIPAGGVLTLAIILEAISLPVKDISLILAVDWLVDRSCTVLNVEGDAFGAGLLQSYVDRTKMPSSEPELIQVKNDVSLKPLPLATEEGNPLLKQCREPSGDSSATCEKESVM
Experiment: whole-cell current recording, inhibition of anion leak current in HEK293 cells expressing rat ASCT2
Format: cell-based

IC50: 67 ± 17 µM
SMILES: Cc1ccccc1C1(CNC(=O)NC(C(N)=O)c2ccccc2)CC1 (stereo not shown) [compound 10]
